In paper PMC9890180, “Structural diversity-guided optimization of carbazole derivatives as potential cytotoxic agents” (Frontiers in Chemistry, 2023):
Like-named read-outs stand apart in the source and are kept apart here.

Key:
A875 (human melanoma) [1] = assay: In vitro cytotoxicity MTT assay, A875 cells; conditions: for IC50 / inhibition at 40 µg/mL: Homo sapiens; for inhibition at 40 µg/mL: A875, read-out: in vitro inhibition rate on A875
Procedure: (§1) The in vitro cytotoxicity of these carbazole derivatives against human melanoma (A875), human gastric adenocarcinoma cells (7901), and a subclone of African green monkey kidney cell line MA-104 (MARC145) cell lines was evaluated using the MTT assay. Briefly, A875, 7901, and MARC145 cells were seeded at 2 × 10^4 cells per well in 96-well plates and grown to subconfluence. After removal of the growth medium, six serial dilutions of each tested compound in 200 µL test medium were added. Plates were incubated at 37°C in a humidified atmosphere containing 5% CO2. After 72 h of exposure, the culture medium was removed and 30 µL of the MTT solution (5 mg/mL in PBS) was added to each well. The plate was further incubated for 4 h to allow MTT formazan formation. To dissolve the resulting MTT formazan, 50 µL of DMSO was added to each well, followed by thorough mixing with a microplate shaker. Absorbance at 570 nm was measured on a microplate reader (Thermo Scientific, MK3). All data were analyzed with SPSS software, and the 50% inhibitory concentrations (IC50) of each compound for the different cell lines were determined. All assays were performed in triplicate on three independent experiments.

[2] = system: 7901, A875 and MARC145 cell lines; assay: In vitro cytotoxicity MTT assay, overall rating over the tested cell lines; type: cell-based
Procedure: The relationship between concentration and inhibition rate is the key to whether a potential compound can be use as potential medicinal agents. It is very important to maintain good activity at low concentration. Based on the preliminary screening data, in order to verify the effect of concentration on the potential cytotoxic activities for all compounds, the inhibition activity data of the compounds at different concentrations were detected using the same method. All experiments were carried out on three kinds of cell lines with six concentrations of 40, 20, 10, 5, 1, and 0.5 μg/mL. The inhibition activities for highly potential compounds 7b, 11a, 11b, 14a, and 14b were described in Figure 4.

[3] = system: 7901 (human gastric adenocarcinoma cells); assay: In vitro cytotoxicity MTT assay, 7901 cells; conditions: for IC50 / inhibition at 40 µg/mL: Homo sapiens; for inhibition at 40 µg/mL: read-out: in vitro inhibition rate on 7901
Procedure: as §1

[4] = In vitro cytotoxicity MTT assay, MARC145 cells; conditions: African green monkey, MARC145 cells (subclone of kidney cell line MA-104)
Procedure: as §1

A875 (human melanoma) [5] = system: A875 (human melanoma)
Procedure: as §1

[6] = system: MARC145 (a subclone of African green monkey kidney cell line MA-104)
Procedure: as §1

[7] = system: 7901 (human gastric adenocarcinoma cells)
Procedure: as §1

[8] = system: MARC145 (a subclone of African green monkey kidney cell line MA-104); assay: In vitro cytotoxicity MTT assay, MARC145 cells; conditions: preliminary screening, 40 μg/mL
Procedure: as §1

A875 (human melanoma) [9] = system: A875 (human melanoma); design: method as in Huang et al., 2021; conditions: previous work; ref Huang et al., 2021; read-out: IC50 against A875; cited from earlier work
[10] = system: MARC145 (a subclone of African green monkey kidney cell line MA-104); design: method as in Huang et al., 2021; conditions: previous work; ref Huang et al., 2021; cited from earlier work
[11] = A875, 72 h, read-out: In vitro cytotoxicity IC50, A875
[12] = 72 h, read-out: In vitro cytotoxicity IC50, 7901
[13] = A875, read-out: A875 IC50 (Figure 5)

Row | Molecule | melting point | IC50 (A875 (human melanoma) [1]; [11]) | Inhibitory activity on tested cells, in words [2] | IC50 [3, 12] | IC50 at 72 h [4] | other results
1 | Cc1ccc(NNC(=O)C(C)c2ccc3c(c2)[nH]c2ccc(Cl)cc23)cc1 (stereo not drawn) [Compound 11c, 2-(6-Chloro-9H-carbazol-2-yl)-N'-(p-tolyl)propanehydrazide] | 188 °C | > 40 µM |  |  | 64 ± 20.1 µM | 
2 | 2-(6-Chloro-9H-carbazol-2-yl)-N-(2-((dimethylphosphoryl)amino)phenyl)propanamide [Compound 11b] |  |  | good inhibition activities on all tested cells |  |  | IC50 (A875 (human melanoma) [5]): 33.6 ± 9.48 µM; in vitro inhibition rate on A875 (A875 (human melanoma) [1]; concentration of 40 μg/mL): > 70%; IC50 [6]: 17.3 ± 7.25 µM; in vitro inhibition rate on 7901 ([3]; concentration of 40 μg/mL): > 70%; IC50 [7]: 20.6 ± 3.3 µM
3 | Cc1c(C(=O)NCC(=O)c2ccccc2)ccc2c1[nH]c1ccccc12 [Compound 7e, 1-Methyl-N-(2-oxo-2-phenylethyl)-9H-carbazole-2-carboxamide] | 153 °C | > 40 µM |  |  | 62.6 ± 28.2 µM | 
4 | Cc1c(C(=O)Nc2ccc(S(=O)(=O)Nc3ccccc3Oc3ccccc3)cc2)ccc2c1[nH]c1ccccc12 [Compound 7a, 1-Methyl-N-(4-(N-(2-phenoxyphenyl)sulfamoyl)phenyl)-9H-carbazole-2-carboxamide] | 78 °C | 33.5 ± 1.63 µM |  | 64.7 ± 15.1 µM | 51.5 ± 9.24 µM | 
5 | Cc1ccc(S(=O)(=O)N(NC(=O)c2ccc3c([nH]c4ccccc43)c2C)C(C)(C)C)cc1 [Compound 7d, N-(tert-Butyl)-4-methyl-N'-(1-methyl-9H-carbazole-2-carbonyl)benzenesulfonohydrazide] | 97 °C | > 40 µM | decreases significantly | 34.5 ± 9.9 µM | 18.7 ± 4.16 µM | 
6 | CC(C(=O)NCCS(C)(=O)=O)c1ccc2c(c1)[nH]c1ccc(Cl)cc12 (stereo not drawn) [Compound 11d, 2-(6-Chloro-9H-carbazol-2-yl)-N-(2-(methylsulfonyl)ethyl)propanamide] | 149 °C | > 40 µM | lost activity |  | > 40 µM | 
7 | COc1cccc(/C=N/NC(=O)c2ccc3c([nH]c4ccccc43)c2C)c1O [Compound 2021-7e] |  |  |  |  |  | IC50 (A875 (human melanoma) [9]): 4.15 µM; IC50 [10]: 26.6 µM
8 | Cc1c(C(=O)Nc2ccc(S(=O)(=O)Nc3ccc(Cl)nc3)cc2)ccc2c1[nH]c1ccccc12 [Compound 7b, N-(4-(N-(6-Chloropyridin-3-yl)sulfamoyl)phenyl)-1-methyl-9H-carbazole-2-carboxamide] | 93 °C | 23 ± 16.9 µM | moderate inhibitory activity | 58.1 ± 11.3 µM | 58.9 ± 16.7 µM | inhibition at 40 µg/mL (A875 (human melanoma) [1]): > 70%; inhibition at 40 µg/mL [3]: > 70%; Toxicity to normal cells MARC-145 compared with cancer cells, in words [8]: less toxicity to normal cells MARC-145 than cancer cells
9 | Cc1c(C(=O)NN(C(=O)c2ccccc2)C(C)(C)C)ccc2c1[nH]c1ccccc12 [Compound 7c, N'-Benzoyl-N'-(tert-butyl)-1-methyl-9H-carbazole-2-carbohydrazide] | 212 °C | > 40 µM |  |  | 58.4 ± 31.6 µM | 
10 | CC(C(=O)Nc1ccc(S(=O)(=O)Nc2ncccn2)cc1)c1ccc2c(c1)[nH]c1ccc(Cl)cc12 (stereo not drawn) [Compound 11e, 2-(6-Chloro-9H-carbazol-2-yl)-N-(4-(N-(pyrimidin-2-yl)sulfamoyl)phenyl)propanamide] | 157 °C | > 40 µM |  |  | > 40 µM | 
11 | O=c1[nH]cc(F)c(=O)[nH]1 [Compound 5-FU, 5-fluorouracil, reference compound] |  | 80.1 ± 6.61 µM |  | 63.5 ± 4.92 µM | 86.3 ± 8.3 µM | 
12 | CC(C(=O)Nc1ccccc1NS(C)(=O)=O)c1ccc2c(c1)[nH]c1ccc(Cl)cc12 (stereo not drawn) [Compound 11a, 2-(6-Chloro-9H-carbazol-2-yl)-N-(2-(methylsulfonamido)phenyl)propanamide] | 163 °C | 36.7 ± 2.96 µM | good inhibition activities on all tested cells | 21.9 ± 3.05 µM | 22.9 ± 14.3 µM | inhibition at 40 µg/mL (A875 (human melanoma) [1]): > 70%; inhibition at 40 µg/mL [3]: > 70%; Toxicity to normal cells MARC-145 compared with cancer cells, in words [8]: less toxicity to normal cells MARC-145 than cancer cells

Continued, in another order:

Row | melting point | Molecule | IC50 (A875 (human melanoma) [1]; [11]) | Inhibitory activity on tested cells, in words [2] | IC50 [3, 12] | IC50 at 72 h [4] | other results
13 | 186 °C | CC(C(=O)NN=CC=Cc1ccc(Cl)cc1)c1ccc2c(c1)[nH]c1ccc(Cl)cc12 (stereo not drawn) [Compound 14b, 2-(6-Chloro-9H-carbazol-2-yl)-N'-(3-(4-chlorophenyl)allylidene)propanehydrazide] | 45.6 ± 30.6 µM | good inhibition activities on all tested cells | 18.9 ± 2.64 µM | 19.6 ± 6.94 µM | inhibition at 40 µg/mL (A875 (human melanoma) [1]): > 70%; inhibition at 40 µg/mL [3]: > 70%
14 | 239 °C | COc1cc(C=NNC(=O)C(C)c2ccc3c(c2)[nH]c2ccc(Cl)cc23)ccc1O (stereo not drawn) [Compound 14e, 2-(6-Chloro-9H-carbazol-2-yl)-N'-(4-hydroxy-3-methoxybenzylidene)propanehydrazide] | > 40 µM | almost lost its activity |  | > 40 µM | IC50 (A875 (human melanoma) [1]; [13]): > 100 µM; IC50 ([3]; read-out: 7901 IC50 (Figure 5)): > 100 µM
15 | 217 °C | COc1cccc(C=NNC(=O)C(C)c2ccc3c(c2)[nH]c2ccc(Cl)cc23)c1O (stereo not drawn) [Compound 14a, 2-(6-Chloro-9H-carbazol-2-yl)-N'-(2-hydroxy-3-methoxybenzylidene)propanehydrazide] | 9.77 ± 8.32 µM | good inhibition activities on all tested cells | 11.8 ± 1.26 µM | 7.47 ± 4.15 µM | IC50 (A875 (human melanoma) [1]; [13]): 9.77 ± 8.33 µM; inhibition at 40 µg/mL (A875 (human melanoma) [1]): > 70%; Inhibition activity at low concentration, in words ([2]; concentration of 5 μg/mL): good activity; inhibition at 40 µg/mL [3]: > 70%; Toxicity to normal cells MARC-145 compared with cancer cells, in words [8]: less toxicity to normal cells MARC-145 than cancer cells
16 | 209 °C | CC(C(=O)NN=Cc1c[nH]c2ccccc12)c1ccc2c(c1)[nH]c1ccc(Cl)cc12 (stereo not drawn) [Compound 14d, N'-((1H-Indol-3-yl)methylene)-2-(6-chloro-9H-carbazol-2-yl)propanehydrazide] | 37.6 ± 8.15 µM |  |  | 42.4 ± 4.58 µM | 
17 | 241 °C | CC(C(=O)NN=Cc1ccc(Cl)cc1Cl)c1ccc2c(c1)[nH]c1ccc(Cl)cc12 (stereo not drawn) [Compound 14g, 2-(6-Chloro-9H-carbazol-2-yl)-N'-(2,4-dichlorobenzylidene)propanehydrazide] | > 40 µM |  | 38.8 ± 2.74 µM | 96.3 ± 63.3 µM | 
18 | 218 °C | CC(C(=O)NN=Cc1ccc(Cl)cc1)c1ccc2c(c1)[nH]c1ccc(Cl)cc12 (stereo not drawn) [Compound 14f, 2-(6-Chloro-9H-carbazol-2-yl)-N'-(4-chlorobenzylidene)propanehydrazide] | > 40 µM |  |  | > 40 µM | IC50 (A875 (human melanoma) [1]; [13]): > 100 µM; IC50 ([3]; read-out: 7901 IC50 (Figure 5)): > 100 µM
19 | 240 °C | CC(C(=O)NN=Cc1ccc2c(c1)OCO2)c1ccc2c(c1)[nH]c1ccc(Cl)cc12 (stereo not drawn) [Compound 14c, N'-(Benzo[d][1,3]dioxol-5-ylmethylene)-2-(6-chloro-9H-carbazol-2-yl)propanehydrazide] | > 40 µM |  |  | > 40 µM | 
